One block for each compound: values may come before it. Active and inactive are the calls of the source.
Key:
[1] = target: T1, RNA-binding protein pos-1 (Caenorhabditis elegans, UniProt G5EF15); assay: inhibitors of POS-1/mex-3 RNA binding, dose response, biochemical, fluorescence polarization (AID 1964);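 note: purified POS-1 fused to maltose binding protein made in E. coli; potency of compounds blocking POS-1 binding to fluorescent RNA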
T1 sequence (G5EF15 whole entry): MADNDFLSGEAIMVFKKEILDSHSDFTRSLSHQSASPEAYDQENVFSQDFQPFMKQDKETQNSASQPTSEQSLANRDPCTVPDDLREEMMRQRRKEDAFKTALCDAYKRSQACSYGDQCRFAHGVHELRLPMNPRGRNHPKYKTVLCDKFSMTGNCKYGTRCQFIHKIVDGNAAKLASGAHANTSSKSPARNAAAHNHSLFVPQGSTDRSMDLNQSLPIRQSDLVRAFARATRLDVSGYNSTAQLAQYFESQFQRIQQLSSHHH

SUMO-activating enzyme [2] = target: T2, SUMO-activating enzyme (Homo sapiens, UniProt Q9UBT2); assay: SUMOylation inhibitor hit validation, confirmation, SUMOylation inhibitor project, biochemical, AlphaScreen (AID 2018); assay type: functional
[3] = target: T3, Zinc finger protein mex-5 (Caenorhabditis elegans, UniProt Q9XUB2); assay: MEX-5/TCR-2 RNA interaction inhibitors, dose response, biochemical, C. elegans, fluorescence polarization (AID 1960)
T3 sequence (Q9XUB2 whole entry): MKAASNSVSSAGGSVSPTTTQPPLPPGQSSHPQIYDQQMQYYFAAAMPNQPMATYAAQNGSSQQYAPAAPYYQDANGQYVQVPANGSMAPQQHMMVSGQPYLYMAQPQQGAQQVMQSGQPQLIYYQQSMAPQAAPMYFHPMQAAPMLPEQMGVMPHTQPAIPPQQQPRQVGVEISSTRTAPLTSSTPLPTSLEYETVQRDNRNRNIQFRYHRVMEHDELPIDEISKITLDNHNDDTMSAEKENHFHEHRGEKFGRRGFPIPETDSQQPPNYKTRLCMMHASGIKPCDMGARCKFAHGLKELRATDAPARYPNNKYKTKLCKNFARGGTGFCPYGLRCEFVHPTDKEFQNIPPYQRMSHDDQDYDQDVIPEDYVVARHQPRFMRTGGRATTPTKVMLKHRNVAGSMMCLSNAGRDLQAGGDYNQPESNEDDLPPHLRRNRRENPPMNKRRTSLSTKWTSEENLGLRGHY

SUMO-activating enzyme [4] = target: T2, SUMO-activating enzyme; assay: inhibitors of in vitro SUMOylation cascade, primary screen, biochemical, HTRF, uHTS (AID 2006); assay type: protein-complex assay
[5] = target: Induced myeloid leukemia cell differentiation protein Mcl-1 (Homo sapiens, UniProt Q07820); assay type: functional
Bcl-2-related protein A1 = target: T4, Bcl-2-related protein A1 (Mus musculus, UniProt Q07440); assay type: functional;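 note: confirmatory dose–response counterscreen on Bfl-1, used to check hits from a UBC13 polyubiquitin inhibitor campaign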
T4 sequence (Q07440 whole entry): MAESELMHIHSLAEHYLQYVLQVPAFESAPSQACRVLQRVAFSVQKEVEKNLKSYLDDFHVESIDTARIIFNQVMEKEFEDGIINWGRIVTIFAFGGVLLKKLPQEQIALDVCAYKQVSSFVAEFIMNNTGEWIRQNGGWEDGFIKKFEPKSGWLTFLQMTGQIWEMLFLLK

[6] = target: T5, Ubiquitin-conjugating enzyme E2 N (Homo sapiens, UniProt P61088); assay type: functional
T5 sequence (P61088 whole entry): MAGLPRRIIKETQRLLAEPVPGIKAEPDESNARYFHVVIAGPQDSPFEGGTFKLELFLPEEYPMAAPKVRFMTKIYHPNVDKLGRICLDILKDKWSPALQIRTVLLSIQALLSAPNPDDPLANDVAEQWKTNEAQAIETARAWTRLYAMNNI

[7] = target: T5, Ubiquitin-conjugating enzyme E2 N; assay type: functional; remark: listed apart in the source
[8] = target: T6, Heat shock factor protein 1 (Mus musculus, UniProt P38532); assay: HSF1 potentiators in luciferase reporter cells, confirmation, cell-based, NIH3T3, luminescence, dose retest (AID 435004); assay type: functional;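 note: stress induced by proteasome inhibitor MG132 added 30 min after compound; luciferase reporter driven by HSF1 response element in NIH3T3 cells; actives raise luminescence as potentiators of the MG132 stress response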
T6 sequence (P38532 whole entry): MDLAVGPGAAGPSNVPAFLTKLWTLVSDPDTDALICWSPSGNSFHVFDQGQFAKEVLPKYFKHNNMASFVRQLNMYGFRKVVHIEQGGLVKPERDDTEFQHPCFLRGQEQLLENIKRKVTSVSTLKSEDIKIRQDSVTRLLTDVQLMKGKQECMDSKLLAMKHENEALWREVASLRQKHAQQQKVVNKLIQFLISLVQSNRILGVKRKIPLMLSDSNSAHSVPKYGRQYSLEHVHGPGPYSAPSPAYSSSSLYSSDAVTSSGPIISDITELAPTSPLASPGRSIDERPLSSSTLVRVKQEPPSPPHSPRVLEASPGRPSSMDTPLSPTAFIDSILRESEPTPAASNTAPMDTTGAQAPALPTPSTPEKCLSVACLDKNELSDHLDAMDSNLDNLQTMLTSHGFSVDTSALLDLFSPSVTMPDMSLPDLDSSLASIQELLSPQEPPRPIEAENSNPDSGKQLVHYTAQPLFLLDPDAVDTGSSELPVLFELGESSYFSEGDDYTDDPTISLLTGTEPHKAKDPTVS

[9] = target: T7, Short transient receptor potential channel 4 (Mus musculus, UniProt Q9QUQ5); assay: mouse TRPC4 channel inhibitors, dose response, cell-based, HEK293 TRPC4/mu-opioid, Fluo-4 calcium (AID 434942); assay type: functional;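 note: potency of inhibitors blocking the TRPC4 calcium response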
T7 sequence (Q9QUQ5 whole entry): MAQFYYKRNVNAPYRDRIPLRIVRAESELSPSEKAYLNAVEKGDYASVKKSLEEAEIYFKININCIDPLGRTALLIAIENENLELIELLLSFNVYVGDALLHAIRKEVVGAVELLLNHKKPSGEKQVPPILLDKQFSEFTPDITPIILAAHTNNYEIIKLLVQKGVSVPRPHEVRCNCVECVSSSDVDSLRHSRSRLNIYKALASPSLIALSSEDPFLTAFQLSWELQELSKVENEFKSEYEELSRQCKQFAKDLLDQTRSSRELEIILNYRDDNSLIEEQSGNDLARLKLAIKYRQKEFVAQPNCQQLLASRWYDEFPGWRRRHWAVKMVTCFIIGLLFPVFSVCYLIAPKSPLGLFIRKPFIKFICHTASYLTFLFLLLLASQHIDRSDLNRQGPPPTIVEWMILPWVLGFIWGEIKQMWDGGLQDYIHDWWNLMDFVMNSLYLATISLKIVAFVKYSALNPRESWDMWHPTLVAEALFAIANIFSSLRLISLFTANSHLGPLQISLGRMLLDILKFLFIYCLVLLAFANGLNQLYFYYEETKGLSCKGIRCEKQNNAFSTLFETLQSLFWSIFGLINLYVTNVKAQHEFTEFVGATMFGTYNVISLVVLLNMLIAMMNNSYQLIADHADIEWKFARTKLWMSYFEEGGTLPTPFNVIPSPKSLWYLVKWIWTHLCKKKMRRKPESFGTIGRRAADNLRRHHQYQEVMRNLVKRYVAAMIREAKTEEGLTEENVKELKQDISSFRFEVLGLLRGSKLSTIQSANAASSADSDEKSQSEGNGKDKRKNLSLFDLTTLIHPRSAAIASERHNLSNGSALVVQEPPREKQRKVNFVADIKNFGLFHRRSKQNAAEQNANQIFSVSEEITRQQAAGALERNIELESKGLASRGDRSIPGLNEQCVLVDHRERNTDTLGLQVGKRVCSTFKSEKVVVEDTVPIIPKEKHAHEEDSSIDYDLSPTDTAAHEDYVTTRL

Cytochrome P450 2D6 = Cytochrome P450 2D6 (Homo sapiens, UniProt P10635);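 note: CYP2D6 member of a cytochrome P450 panel assay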
Cytochrome P450 3A4 = Cytochrome P450 3A4 (Homo sapiens, UniProt P08684);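 note: CYP3A4 tested as one member of a cytochrome P450 panel screen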
[10] = target: T8, Calpain-2 catalytic subunit (Sus scrofa, UniProt P43367); assay: pig calpain II inhibitor potency, dose response, biochemical, fluorogenic peptide substrate (AID 1420); assay type: functional
T8 sequence (P43367 whole entry): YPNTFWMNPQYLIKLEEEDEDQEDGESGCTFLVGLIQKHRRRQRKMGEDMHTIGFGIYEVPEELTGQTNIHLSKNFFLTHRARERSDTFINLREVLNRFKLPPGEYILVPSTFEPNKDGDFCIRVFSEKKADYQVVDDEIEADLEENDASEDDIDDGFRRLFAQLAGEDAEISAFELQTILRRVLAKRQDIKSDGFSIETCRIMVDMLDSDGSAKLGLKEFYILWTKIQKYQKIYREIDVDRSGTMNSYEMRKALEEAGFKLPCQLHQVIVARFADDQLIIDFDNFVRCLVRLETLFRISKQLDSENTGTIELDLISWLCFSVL

Beta-galactosidase = Beta-galactosidase (Escherichia coli, UniProt Q8VNN2); assay: PubChem AID 485352; assay type: functional
[11] = target: T9, Type-1 angiotensin II receptor (Homo sapiens, UniProt P30556); assay: AT1 receptor antagonists, dose response, selectivity assay for APJ receptor antagonist project, cell-based, uHTS hits (AID 463214); assay type: functional;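 note: antagonist potency against angiotensin II stimulated AT1 response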
T9 sequence (P30556 whole entry): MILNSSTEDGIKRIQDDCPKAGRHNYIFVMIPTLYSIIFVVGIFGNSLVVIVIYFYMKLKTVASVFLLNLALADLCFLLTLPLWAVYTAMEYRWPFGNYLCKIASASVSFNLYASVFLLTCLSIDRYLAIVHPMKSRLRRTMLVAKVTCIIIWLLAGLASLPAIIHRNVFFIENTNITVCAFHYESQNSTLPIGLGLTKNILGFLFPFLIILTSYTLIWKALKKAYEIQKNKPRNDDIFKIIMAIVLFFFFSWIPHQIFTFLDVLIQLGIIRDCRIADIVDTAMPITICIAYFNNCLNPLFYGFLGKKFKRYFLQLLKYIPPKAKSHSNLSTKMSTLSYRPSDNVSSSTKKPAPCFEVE

HEK293 = assay: cytotoxicity in HEK293T NF-kB-Luc cells, SAR follow-up, cytotoxicity control for NF-kB activator project, cell-based, resazurin fluorescence (AID 493251); assay type: functional; conditions: Homo sapiens

Beta-galactosidase, sequence (Q8VNN2 whole entry): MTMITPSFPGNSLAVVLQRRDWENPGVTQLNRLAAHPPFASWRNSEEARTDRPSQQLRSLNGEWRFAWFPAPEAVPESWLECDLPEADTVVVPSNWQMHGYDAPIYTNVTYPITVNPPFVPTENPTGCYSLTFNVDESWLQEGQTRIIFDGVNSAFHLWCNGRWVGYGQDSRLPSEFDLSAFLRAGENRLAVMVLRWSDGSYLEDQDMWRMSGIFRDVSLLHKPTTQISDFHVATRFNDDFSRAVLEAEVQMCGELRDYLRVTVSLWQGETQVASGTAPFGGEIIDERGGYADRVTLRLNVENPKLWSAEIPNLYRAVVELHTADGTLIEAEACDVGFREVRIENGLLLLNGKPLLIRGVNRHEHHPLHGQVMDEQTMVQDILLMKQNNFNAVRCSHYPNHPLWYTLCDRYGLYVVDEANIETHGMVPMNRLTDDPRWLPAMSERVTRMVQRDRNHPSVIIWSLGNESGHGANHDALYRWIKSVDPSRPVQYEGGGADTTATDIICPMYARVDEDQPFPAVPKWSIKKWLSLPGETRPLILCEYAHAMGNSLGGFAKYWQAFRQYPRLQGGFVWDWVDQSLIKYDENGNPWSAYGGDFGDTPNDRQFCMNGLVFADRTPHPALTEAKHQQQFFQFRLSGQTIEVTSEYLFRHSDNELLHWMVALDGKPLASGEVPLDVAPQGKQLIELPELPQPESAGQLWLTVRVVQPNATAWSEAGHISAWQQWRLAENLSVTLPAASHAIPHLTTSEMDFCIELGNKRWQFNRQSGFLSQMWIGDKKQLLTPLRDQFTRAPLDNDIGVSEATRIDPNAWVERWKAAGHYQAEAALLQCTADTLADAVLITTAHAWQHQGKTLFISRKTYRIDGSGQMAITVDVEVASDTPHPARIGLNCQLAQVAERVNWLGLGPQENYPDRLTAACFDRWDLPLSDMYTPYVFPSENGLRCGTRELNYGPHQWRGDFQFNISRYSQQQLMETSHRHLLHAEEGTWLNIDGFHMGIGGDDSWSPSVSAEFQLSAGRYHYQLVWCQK
T2 sequence (Q9UBE0 whole entry): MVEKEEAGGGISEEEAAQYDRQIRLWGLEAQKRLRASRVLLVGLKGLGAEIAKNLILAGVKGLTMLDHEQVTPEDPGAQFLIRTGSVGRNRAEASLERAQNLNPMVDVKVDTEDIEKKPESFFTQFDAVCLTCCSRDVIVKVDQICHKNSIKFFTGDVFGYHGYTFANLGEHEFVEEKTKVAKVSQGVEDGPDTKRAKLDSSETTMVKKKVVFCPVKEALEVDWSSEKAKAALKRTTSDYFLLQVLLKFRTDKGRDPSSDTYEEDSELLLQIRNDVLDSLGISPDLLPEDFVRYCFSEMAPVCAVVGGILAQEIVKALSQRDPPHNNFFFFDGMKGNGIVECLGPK
T2 sequence (Q9UBT2 whole entry): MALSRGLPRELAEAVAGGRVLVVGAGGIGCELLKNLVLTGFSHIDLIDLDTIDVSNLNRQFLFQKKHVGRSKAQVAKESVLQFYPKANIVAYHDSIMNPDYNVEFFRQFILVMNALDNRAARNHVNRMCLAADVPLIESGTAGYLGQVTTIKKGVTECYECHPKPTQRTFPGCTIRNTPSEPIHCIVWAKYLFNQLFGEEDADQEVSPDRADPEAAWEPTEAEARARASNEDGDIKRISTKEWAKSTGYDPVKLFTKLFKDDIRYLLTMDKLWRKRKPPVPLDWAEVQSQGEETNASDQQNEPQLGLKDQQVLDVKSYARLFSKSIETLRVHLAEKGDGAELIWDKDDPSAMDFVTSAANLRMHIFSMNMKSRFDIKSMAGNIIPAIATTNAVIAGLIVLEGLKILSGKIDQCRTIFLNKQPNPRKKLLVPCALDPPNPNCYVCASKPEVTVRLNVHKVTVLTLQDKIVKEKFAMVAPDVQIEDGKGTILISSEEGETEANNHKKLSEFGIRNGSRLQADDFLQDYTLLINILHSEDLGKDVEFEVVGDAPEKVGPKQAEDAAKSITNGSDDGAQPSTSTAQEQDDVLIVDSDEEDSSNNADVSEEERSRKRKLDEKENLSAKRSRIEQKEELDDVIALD
Induced myeloid leukemia cell differentiation protein Mcl-1, sequence (Q07820 whole entry): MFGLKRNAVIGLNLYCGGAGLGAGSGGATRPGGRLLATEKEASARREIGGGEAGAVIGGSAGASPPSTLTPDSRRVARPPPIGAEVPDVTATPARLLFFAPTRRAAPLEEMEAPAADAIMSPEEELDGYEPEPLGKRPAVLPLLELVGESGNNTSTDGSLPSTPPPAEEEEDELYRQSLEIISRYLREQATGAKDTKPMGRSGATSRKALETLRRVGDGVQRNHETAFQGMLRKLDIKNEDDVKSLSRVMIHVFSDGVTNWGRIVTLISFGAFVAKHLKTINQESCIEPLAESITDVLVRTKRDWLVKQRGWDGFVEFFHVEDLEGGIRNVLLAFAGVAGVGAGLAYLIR
Cytochrome P450 3A4, sequence (P08684 whole entry): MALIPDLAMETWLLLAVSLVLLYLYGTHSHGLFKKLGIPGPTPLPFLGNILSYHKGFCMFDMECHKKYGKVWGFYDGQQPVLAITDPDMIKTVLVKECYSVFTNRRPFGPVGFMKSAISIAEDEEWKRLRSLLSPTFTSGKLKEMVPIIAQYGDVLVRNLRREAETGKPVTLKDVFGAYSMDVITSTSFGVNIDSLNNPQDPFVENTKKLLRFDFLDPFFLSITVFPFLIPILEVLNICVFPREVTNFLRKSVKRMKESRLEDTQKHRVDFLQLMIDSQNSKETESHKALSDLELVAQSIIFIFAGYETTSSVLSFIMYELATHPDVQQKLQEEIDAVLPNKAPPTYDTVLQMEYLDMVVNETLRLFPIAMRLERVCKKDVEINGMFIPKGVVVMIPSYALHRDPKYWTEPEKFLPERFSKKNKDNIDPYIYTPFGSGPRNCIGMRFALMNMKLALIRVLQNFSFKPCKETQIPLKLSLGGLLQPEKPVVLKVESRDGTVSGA
Cytochrome P450 2D6, sequence (P10635 whole entry): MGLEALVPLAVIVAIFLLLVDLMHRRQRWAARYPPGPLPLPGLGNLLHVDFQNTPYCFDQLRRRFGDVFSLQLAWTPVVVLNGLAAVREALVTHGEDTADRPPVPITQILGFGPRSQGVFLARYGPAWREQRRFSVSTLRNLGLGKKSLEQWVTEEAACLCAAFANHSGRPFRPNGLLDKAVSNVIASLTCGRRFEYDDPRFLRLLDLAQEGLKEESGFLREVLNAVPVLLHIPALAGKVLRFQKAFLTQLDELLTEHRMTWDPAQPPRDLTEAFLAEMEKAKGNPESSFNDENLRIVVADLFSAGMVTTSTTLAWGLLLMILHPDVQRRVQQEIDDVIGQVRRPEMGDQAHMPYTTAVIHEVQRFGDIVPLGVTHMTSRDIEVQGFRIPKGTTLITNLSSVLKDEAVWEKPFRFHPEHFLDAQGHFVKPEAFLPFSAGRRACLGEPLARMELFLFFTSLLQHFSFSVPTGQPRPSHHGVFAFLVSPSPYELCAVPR

- EC50 [1]: > 300 µM (inconclusive)
- IC50 (SUMO-activating enzyme [2]): 6.48 µM (active)
- EC50 [3]: > 300 µM (not active)
- IC50 (SUMO-activating enzyme [4]): 25.7 µM (active)
- IC50 [5]: 1.59 µM (active)
Compound: CC1=C(C#N)C(=O)NC(=O)/C1=C/c1ccc(-c2ccc(S(N)(=O)=O)cc2)o1

- IC50 (Bcl-2-related protein A1): > 20 µM (inactive)
- IC50 [6]: 15.6 µM (active)
- IC50 [7]: 18.8 µM (active)
- EC50 [8]: > 260 µM (inactive)
Compound: O=C(CSc1cc(Cl)ccc1Cl)NCC(=O)Nc1ccc(F)c(F)c1F

- EC50 [9]: 2.11 µM (active)
- AC50 (Cytochrome P450 2D6): 0.501 µM (inconclusive)
- AC50 (Cytochrome P450 3A4): 15.8 µM (inconclusive)
Compound: CC(C)(C)c1cc2cccnc2n1Cc1ccccc1

- IC50 [10]: 11.5 µM (not active)
- EC50 [9]: 2.11 µM (active)
Compound: COc1cccc(O)c1CN1CCCC(C(=O)c2cccc(C(F)(F)F)c2)C1 (stereo not given)

- IC50 (Bcl-2-related protein A1): > 20 µM (inactive)
- IC50 [6]: 19.3 µM (active)
- IC50 [7]: > 20 µM (inactive)
Compound: CNC(=O)c1ccsc1NC(=O)C1CCCN1S(=O)(=O)c1cccs1 (stereo not given)

- EC50 (Beta-galactosidase): > 40 µM (inactive)
- IC50 [11]: 26 µM (not active)
Compound: CC(=O)Nc1ccc(NC(=O)CCC(=O)OCC(=O)c2cccc([N+](=O)[O-])c2)cc1

- EC50 (Beta-galactosidase): > 40 µM (inactive)
- IC50 [11]: > 40 µM (not active)
Compound: O=C(Nc1nnc(SCc2ccc(F)cc2)s1)c1cnccn1

Compound: CC(C)(C)c1ccc(-c2noc(CCC(=O)O)n2)cc1
- IC50 (HEK293): > 80 µM (inactive)

- IC50 (Bcl-2-related protein A1): > 20 µM (inactive)
- IC50 [6]: 19.5 µM (active)
- IC50 [7]: 8.75 µM (active)
Compound: CCOC(=O)c1c(C)c2c(n1C)CCC/C2=N\O
